{"source": "paper PMC9437101", "about": "“Curcumin-based-fluorescent probes targeting ALDH1A3 as a promising tool for glioblastoma precision surgery and early diagnosis” (Communications Biology, 2022)", "key": {"[1]": {"target": "T1, ALDH1A1 (Homo sapiens, UniProt P00352)", "T1 construct": "E. coli BL21 (DE3) were transformed with the full-length expression vector of each isoform; His-tag; made in house; host or cells: E. coli BL21 (DE3)", "T1 sequence (P00352 1-501)": "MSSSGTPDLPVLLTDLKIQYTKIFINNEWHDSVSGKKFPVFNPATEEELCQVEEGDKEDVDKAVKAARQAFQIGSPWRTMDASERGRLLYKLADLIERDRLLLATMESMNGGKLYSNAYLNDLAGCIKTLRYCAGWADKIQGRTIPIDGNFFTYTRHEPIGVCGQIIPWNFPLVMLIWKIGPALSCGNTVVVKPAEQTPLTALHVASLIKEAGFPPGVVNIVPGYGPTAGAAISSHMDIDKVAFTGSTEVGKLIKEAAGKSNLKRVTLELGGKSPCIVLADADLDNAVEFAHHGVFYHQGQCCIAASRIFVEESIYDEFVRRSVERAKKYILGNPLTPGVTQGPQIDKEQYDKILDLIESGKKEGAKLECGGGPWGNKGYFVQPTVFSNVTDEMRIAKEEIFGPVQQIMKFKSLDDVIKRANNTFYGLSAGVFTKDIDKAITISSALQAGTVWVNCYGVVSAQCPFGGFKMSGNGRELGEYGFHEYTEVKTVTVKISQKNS", "assay": "Enzymatic inhibition assay with acetaldehyde", "type": "biochemical", "details": "up to highest probe concentration", "procedure": "(§1) Initially, the inhibitory activities of our fluorescent probes were screened at a fixed concentration of 50 μM using a Tecan Sunrise 96 Multiplate Reader with Greiner Bio-One 96-UV-Transparent Microplates. The analysis was performed in triplicate in a total volume of 100 μl per well containing 20 mM Tris HCl pH 8.0, 1 mM β-mercaptoethanol, 150 mM KCl, 500 μM NAD^+, […], 2.8 μM hALDH1A and 20 mM acetaldehyde. Afterwards, the inhibitory potency of the fluorescent probes was further investigated, evaluating the IC50 parameter. The enzymatic inhibition assays were performed in triplicate in a total volume of 100 μl per well containing 20 mM Tris HCl pH 8.0, 1 mM β-mercaptoethanol, 150 mM KCl, 500 μM NAD^+, 2.8 μM hALDH1A and 20 mM acetaldehyde in the presence of different probe concentrations, from 200 μM to 1.5625 μM. The DMSO final concentration allowed was up to 15%. Only for ALDH1A3 in complex with Probe 10, the Ki affinity parameter was calculated by performing the analysis in triplicate in a total volume of 100 μl per well containing 20 mM Tris HCl pH 8.0, 1 mM β-mercaptoethanol, 150 mM KCl, 500 μM NAD^+ and 2.8 μM ALDH1As. Due to chemical nature of Probe 10 and Probe 11, we set up the enzymatic assay assuming a competitive inhibition using different compounds concentration, from 200 μM to 1 μM, and different acetaldehyde concentrations, from 20 mM to 2.5 mM. Each reaction mix was preincubated for 10 min at 25 °C before the analysis. The catalytic activity was measured by monitoring the absorbance at 340 nm (εNADH = 6220 M^−^1 cm^−1) for 30 min at 25 °C and the inhibitory parameters were calculated by processing the raw data on SigmaPlot[53]."}, "[2]": {"target": "T2, ALDH1A2 (Homo sapiens, UniProt O94788)", "T2 construct": "E. coli BL21 (DE3) were transformed with the full-length expression vector of each isoform; His-tag; made in house; host or cells: E. coli BL21 (DE3)", "T2 sequence (O94788 1-518)": "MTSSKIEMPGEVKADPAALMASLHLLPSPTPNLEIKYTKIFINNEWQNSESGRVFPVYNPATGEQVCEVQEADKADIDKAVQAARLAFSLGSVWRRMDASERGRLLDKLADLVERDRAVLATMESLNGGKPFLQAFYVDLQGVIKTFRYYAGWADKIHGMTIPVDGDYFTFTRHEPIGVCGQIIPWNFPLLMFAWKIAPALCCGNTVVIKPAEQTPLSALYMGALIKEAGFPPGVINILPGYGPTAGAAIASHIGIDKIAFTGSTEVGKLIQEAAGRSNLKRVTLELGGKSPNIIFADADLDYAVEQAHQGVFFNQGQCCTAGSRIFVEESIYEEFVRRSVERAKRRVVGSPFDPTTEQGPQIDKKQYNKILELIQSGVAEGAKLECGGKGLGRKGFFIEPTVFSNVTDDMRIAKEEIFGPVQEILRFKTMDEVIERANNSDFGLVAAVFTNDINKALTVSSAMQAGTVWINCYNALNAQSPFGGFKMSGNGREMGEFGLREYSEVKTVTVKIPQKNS", "assay": "Enzymatic inhibition assay with acetaldehyde", "type": "biochemical", "details": "up to highest probe concentration", "procedure": "as §1"}, "[3]": {"test_system": "GL261 murine glioma cells", "assay": "Imaging flow cytometry of living GL261 cells incubated with probe", "type": "cell-based", "details": "1 h incubation", "procedure": "GL261 cells were incubated, with probe 10 or 11, for 1 h and after three rinses in PBS, cells were detached by trypsin treatment and visualized without fixation through a rMarkII flow cytometer (Amnis, Luminex Corporation, Austin, TX, USA) as previously described. Data were collected using Inspire software (Amnis, version 2.0) with the following parameters: 10,000 images per sample, 488 nm laser (25 and 100 mW) to excite the probes, 785 nm laser used to provide a side scatter signal and measurement of SpeedBeads (Amnis, Luminex Corporation, Austin, TX, USA), 830 nm laser used for internal bead calibration of core flow speed and focus, ×60 objective, in low-speed flow. Data were further analyzed by Ideas software (Amnis, version 6.1)."}, "[4]": {"assay": "Solubility in physiological buffer", "type": "physicochemical", "details": "among all five molecules", "text": "All five fluorescent compounds were firstly characterized for their solubility in physiological buffer and for their absorbance values. We then performed a 3D analysis using a TECAN SPARK to simultaneously evaluate the excitation and the emission wavelengths, that were supposed to be similar to the curcumin ones[48]. […] For these reasons, we decided to continue the biochemical characterization on Probe 10 and 11 using the selected parameters (Fig. 2). The fluorescent signal changes for both molecules upon binding to the target, were firstly evaluated with recombinant human ALDH1A3. […] To better characterized our fluorescent compounds, we tested their potential cross-reactivity toward the other two isoforms of the ALDH1A subfamily. […] In addition, a wide range of biologically relevant analytes were tested at a concentration of 100 μM in complex with a fixed concentration of 10 μM of the probe (either probe 10 or probe 11), to make sure that no potential off-target signals could affect the analysis. More specifically, we checked if there were abnormal fluorescence signals that could have been contributed by the presence of biologically relevant compounds, (e.g., biologically relevant amino acids), to buffers and molecules commonly used in experimental procedures."}}}
{"smiles": "COc1cc(/C=C/C(O)=C/C(=O)/C=C/c2ccc(OCc3cn(CCOc4ccc(C=O)cc4)nn3)c(OC)c2)ccc1O", "note": "[Probe 10]", "values": [{"measurement": "inhibition of ALDH1A1", "setting": "[1]", "value": "Neither of the two other isozymes were inhibited"}, {"measurement": "inhibition of ALDH1A2", "setting": "[2]", "value": "Neither of the two other isozymes were inhibited"}, {"measurement": "entry into and labelling of GL261 cells in vitro", "setting": "[3]", "value": "able to enter and label the murine glioblastoma cells"}, {"measurement": "solubility in physiological buffer", "setting": "[4]", "value": "highest solubility"}]}
{"smiles": "CCOC(=O)Cn1cc(COc2ccc(/C=C/C(=O)/C=C(O)/C=C/c3ccc(O)c(OC)c3)cc2OC)nn1", "note": "[Probe 11]", "values": [{"measurement": "inhibition of ALDH1A1", "setting": "[1]", "value": "no inhibitory effect"}, {"measurement": "inhibition of ALDH1A2", "setting": "[2]", "value": "no inhibitory effect"}, {"measurement": "entry into and labelling of GL261 cells in vitro", "setting": "[3]", "value": "able to enter and label the murine glioblastoma cells"}, {"measurement": "solubility in physiological buffer", "setting": "[4]", "value": "highest solubility"}]}
